In the experiment the target is T1, human recombinant ALK1 (GST fused to ALK1 intracellular domain [His142-Gln503]) (Homo sapiens, UniProt P37023).
T1 construct: GST fused to ALK1 intracellular domain [His142-Gln503]; made in house
T1 sequence (P37023 142-503): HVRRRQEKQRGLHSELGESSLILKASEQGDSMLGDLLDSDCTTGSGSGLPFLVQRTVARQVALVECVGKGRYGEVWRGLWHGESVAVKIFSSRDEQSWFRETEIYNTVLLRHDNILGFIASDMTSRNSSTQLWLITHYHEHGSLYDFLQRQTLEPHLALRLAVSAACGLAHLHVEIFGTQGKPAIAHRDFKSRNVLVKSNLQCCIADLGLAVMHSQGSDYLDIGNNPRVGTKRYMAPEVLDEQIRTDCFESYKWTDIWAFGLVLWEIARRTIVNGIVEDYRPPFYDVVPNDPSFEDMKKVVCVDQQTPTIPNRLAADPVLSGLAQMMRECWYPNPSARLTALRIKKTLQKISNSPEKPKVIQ
The experiment is described as follows: ALK1-Kinase Flashplate-Assay. The format is biochemical. The note with it: 0.5 μM ATP, biotinylated α-casein substrate; read-out: Assay 1 (ALK1-Kinase Flashplate-Assay IC50 class). From the text:
Biological Assay 1: ALK1-Kinase Flashplate-Assay
ALK1 phosphorylates serine/threonine residues of the biotinylated substrate bovine α-casein in the presence of [γ-^33P]ATP. Detection of the radiolabeled phosphorylated product is achieved by binding to streptavidine-coated Flashplates. The biotin moieties of biotinylated casein bind with high affinity to the streptavidine. The radiolabeled biotinylated casein produced by the ALK1 kinase reaction is able to generate a […] signal when strepatavidine-mediated binding occurs to the scintillant-containing surface of the Flashplates due to the close proximity of the radiolabel and the scintillant. […] The signals obtained are therefore indicative of the ALK1 kinase activity. Measurement is performed in a Perkin-Elmer TopCount or Perkin-Elmer ViewLux instrument.
Enzyme: Purified human recombinant ALK1 (GST fused to ALK1 intracellular domain [His142-Gln503]) produced in-house, aliquots stored at −80° C.;
Diluted enzyme working solution: 2.5 ng/μl ALK1 (in assay buffer) freshly prepared and chilled on ice until use.
Substrate: biotinylated bovine α-casein. Unbiotinylated casein obtained from Sigma was biotinylated by standard procedures using N-hydroxysuccinimide (NHS) ester of biotin.
Substrate working solution: 0.83 μM ATP, 1.67 μM biotinylated a-casein, 7.4 nCi [γ-^33P]ATP/μl in assay buffer
Assay plates: 384-well plates, small volume, white, Greiner (# 784075)
Flashplates: Streptavidin-coated Flashplates, Perkin Elmer (384-well # SPM410A)
Assay buffer: 50 mM Tris/HCl pH 8.0, 1 mM MnCl2, 1 mM DTT, 0.01% NP40, 0.5× Complete EDTA-free
Stop solution: 33.3 μM ATP, 33.3 mM EDTA, 0.07% Triton X-100 in PBS
Saturating buffer for Flashplates: 100 μM ATP, 0.2% Triton X-100 in PBS
Sealing tape: Greiner (# 676080)
Protocol for small volume 5 μl assay (all steps are performed at 20° C., pipetted with CyBi-Well and Multidrop Micro): • 1. 50 nl or 250 nl compound in 100% DMSO • 2. addition of 3 μl substrate working solution with CyBi-Well pipettor • 3. addition of 2 μl enzyme working solution with Multidrop Micro incubation for 60 min at room temperature • 4. addition of 15 μl Stop solution with CyBi-Well pipettor • 5. transfer of 18 μl assay mixture to Flashplates** with CyBi-Well pipettor incubation for at least 3 h at room temperature or over night at 4° C. to allow binding to the streptavidine-coated Flashplates • 6. washing the Flashplates 3 times with 50 μl PBS without Ca++ and Mg++ • 7. sealing with sealing tape • 8. Measurement in Topcount (60 sec/well) **Saturation of Flashplates: The Flashplates are preincubated for at least 1 hour with 50 μl saturating buffer. Remove 18 μl from the 50 μl and transfer 18 μl of the assay mixture to the Flashplate.
Final concentrations, calculated for 5 μl reaction volume: ALK1 5 ng/well; 1 μM biotinylated α-casein; 0.5 μM ATP; 22 nCi/well [γ-^33P]ATP; 1 mM MnCl2; 1 mM DTT; 50 mM Tris-HCl; pH 8.0; 0.01% NP40; 0.5× Complete EDTA-free; 1% or 5% DMSO.
The data were normalised (enzyme reaction without inhibitor=0% inhibition, enzyme reaction in the presence of 10 mM EDTA=100% inhibition) and IC50 values were calculated by a 4 parameter fit using an in-house software.

Some results are limits rather than exact numbers.

With `N#Cc1ccc(-c2cnn3ccc(NCCO)nc23)cc1` [Example 119, 4-[5-(2-Hydroxy-ethylamino)-pyrazolo[1,5-a]pyrimidin-3-yl]-benzonitrile], the IC50 was 1 to 10 µM.

Consider `COc1cc(-c2cnn3ccc(NCCO)nc23)cc(OC)c1OC` [Example 120, 2-[3-(3,4,5-Trimethoxy-phenyl)-pyrazolo[1,5-a]pyrimidin-5-ylamino]-ethanol], for which the concentration for half-maximal inhibition (IC50) was less than 1 µM.

With `OCCNc1ccn2ncc(-c3ccc(Cl)cc3)c2n1` [Example 121, 2-[3-(4-Chloro-phenyl)-pyrazolo[1,5-a]pyrimidin-5-ylamino]-ethanol], the IC50 is 1 to 10 µM. On to `OCCNc1ccn2ncc(-c3cccc(OC(F)(F)F)c3)c2n1` [Example 122, 2-[3-(3-Trifluoromethoxy-phenyl)-pyrazolo[1,5-a]pyrimidin-5-ylamino]-ethanol], for which the IC50 fell in the range of 1 to 10 µM.

Consider `COc1cncc(-c2cnn3ccc(NCCO)nc23)c1` [Example 123, 2-[3-(5-Methoxy-pyridin-3-yl)-pyrazolo[1,5-a]pyrimidin-5-ylamino]-ethanol], for which the IC50 is less than 1 µM.

For the molecule `COc1cc(-c2cnn3ccc(NCc4cccnc4)nc23)cc(OC)c1OC` [Example 126, Pyridin-3-ylmethyl-[3-(3,4,5-trimethoxy-phenyl)-pyrazolo[1,5-a]pyrimidin-5-yl]-amine], the IC50 fell in the range of 1 to 10 µM. On to `FC(F)(F)Oc1cccc(-c2cnn3ccc(Nc4ccc(N5CCOCC5)cc4)nc23)c1` [Example 129, (4-Morpholin-4-yl-phenyl)-[3-(3-trifluoromethoxy-phenyl)-pyrazolo[1,5-a]pyrimidin-5-yl]-amine], for which the IC50 lay in the range of 1 to 10 µM. The same measure for `O=C(NCCO)c1cccc(-c2cnn3ccc(Nc4ccc(N5CCOCC5)cc4)nc23)c1` [Example 130, N-(2-Hydroxy-ethyl)-3-[5-(4-morpholin-4-yl-phenylamino)-pyrazolo[1,5-a]pyrimidin-3-yl]-benzamide]: 1 to 10 µM; for `COc1cc(-c2cnn3ccc(NCCN(C)C)nc23)cc(OC)c1OC` [Example 134, N,N-Dimethyl-N-[3-(3,4,5-trimethoxy-phenyl)-pyrazolo[1,5-a]pyrimidin-5-yl]-ethane-1,2-diamine]: 1 to 10 µM. The result for `CN(C)CCNc1ccn2ncc(-c3ccc(C(=O)O)cc3)c2n1` [Example 136, 4-[5-(2-Dimethylamino-ethylamino)-pyrazolo[1,5-a]pyrimidin-3-yl]-benzoic acid] reads 1 to 10 µM; that for `COc1cc(Nc2ccn3ncc(-c4cccc(O)c4)c3n2)cc(OC)c1OC` [Example 138, 3-[5-(3,4,5-Trimethoxy-phenylamino)-pyrazolo[1,5-a]pyrimidin-3-yl]-phenol], 1 to 10 µM. As for `COc1ccc(-c2cnn3ccc(Nc4ccc(O)cc4)nc23)cc1` [Example 146, 4-[3-(4-Methoxy-phenyl)-pyrazolo[1,5-a]pyrimidin-5-ylamino]-phenol], the IC50 lay within 1 to 10 µM.

Regarding `COc1ccc(-c2cnn3ccc(Nc4ccc(O)cc4)nc23)cn1` [Example 147, 4-[3-(6-Methoxy-pyridin-3-yl)-pyrazolo[1,5-a]pyrimidin-5-ylamino]-phenol], the IC50 is less than 1 µM. In the case of `COc1cc(-c2cnn3ccc(Nc4ccc(C)c(NS(C)(=O)=O)c4)nc23)ccc1O` [Example 151], the IC50 is less than 1 µM. Take `COc1ccc(-c2cnn3ccc(NCc4ccncc4)nc23)cc1` [Example 154, [3-(4-Methoxy-phenyl)-pyrazolo[1,5-a]pyrimidin-5-yl]-pyridin-4-ylmethyl-amine]: the IC50 fell in the range of 1 to 10 µM. As for `COc1ccc(-c2cnn3ccc(NC4CCC(O)CC4)nc23)cc1` (stereo not drawn) [Example 155, 4-[3-(4-Methoxy-phenyl)-pyrazolo[1,5-a]pyrimidin-5-ylamino]-cyclohexanol], the IC50 lay within 1 to 10 µM. The result for `Oc1cccc(-c2cnn3ccc(NC4CCC(O)CC4)nc23)c1` (stereo not drawn) [Example 156, 3-[5-(4-Hydroxy-cyclohexylamino)-pyrazolo[1,5-a]pyrimidin-3-yl]-phenol] reads less than 1 µM; that for `O=C(O)/C=C/c1cccc(-c2cnn3ccc(NC4CCC(O)CC4)nc23)c1` (stereo not drawn) [Example 157, (E)-3-{3-[5-(4-Hydroxy-cyclohexylamino)-pyrazolo[1,5-a]pyrimidin-3-yl]-phenyl}-acrylic acid], 1 to 10 µM. The same measure for `OCc1cccc(-c2cnn3ccc(NC4CCC(O)CC4)nc23)c1` (stereo not drawn) [Example 158, 4-[3-(3-Hydroxymethyl-phenyl)-pyrazolo[1,5-a]pyrimidin-5-ylamino]-cyclohexanol]: 1 to 10 µM; for `COc1cc(-c2cnn3ccc(NC4CCC(O)CC4)nc23)ccc1O` (stereo not drawn) [Example 160, 4-[5-(4-Hydroxy-cyclohexylamino)-pyrazolo[1,5-a]pyrimidin-3-yl]-2-methoxy-phenol]: 1 to 10 µM; for `COc1ccc(-c2cnn3ccc(NCCO)nc23)cn1` [Example 164, 2-[3-(6-Methoxy-pyridin-3-yl)-pyrazolo[1,5-a]pyrimidin-5-ylamino]-ethanol]: 1 to 10 µM. The same measure for `COc1cc(-c2cnn3ccc(NCCO)nc23)ccc1O` [Example 165, 4-[5-(2-Hydroxy-ethylamino)-pyrazolo[1,5-a]pyrimidin-3-yl]-2-methoxy-phenol]: less than 1 µM; for `COc1ccc(-c2cnn3ccc(NCc4cccnc4)nc23)cc1` [Example 167, [3-(4-Methoxy-phenyl)-pyrazolo[1,5-a]pyrimidin-5-yl]-pyridin-3-ylmethyl-amine]: 1 to 10 µM.

Take `Oc1cccc(-c2cnn3ccc(NCc4cccnc4)nc23)c1` [Example 168, 3-{5-[(Pyridin-3-ylmethyl)-amino]-pyrazolo[1,5-a]pyrimidin-3-yl}-phenol]: the IC50 was less than 1 µM. For `OCc1cccc(-c2cnn3ccc(NCc4cccnc4)nc23)c1` [Example 170, (3-{5-[(Pyridin-3-ylmethyl)-amino]-pyrazolo[1,5-a]pyrimidin-3-yl}-phenyl)-methanol], the IC50 was 1 to 10 µM.

With `COc1ccc(-c2cnn3ccc(NCc4cccnc4)nc23)cn1` [Example 171, [3-(6-Methoxy-pyridin-3-yl)-pyrazolo[1,5-a]pyrimidin-5-yl]-pyridin-3-ylmethyl-amine], the IC50 lay in the range of 1 to 10 µM. In the case of `Cc1csc(-c2cnn3ccc(NCc4cccnc4)nc23)c1` [Example 172, [3-(4-Methyl-thiophen-2-yl)-pyrazolo[1,5-a]pyrimidin-5-yl]-pyridin-3-ylmethyl-amine], the IC50 was 1 to 10 µM.

For the molecule `COc1ccc(-c2cnn3ccc(Nc4ccc(N5CCOCC5)cc4)nc23)cc1` [Example 173, [3-(4-Methoxy-phenyl)-pyrazolo[1,5-a]pyrimidin-5-yl]-(4-morpholin-4-yl-phenyl)-amine], the IC50 fell in the range of 1 to 10 µM. As for `COc1cc(Nc2ccn3ncc(-c4cccc(C(N)=O)c4)c3n2)cc(OC)c1OC` [Example 176, 3-[5-(3,4,5-Trimethoxy-phenylamino)-pyrazolo[1,5-a]pyrimidin-3-yl]-benzamide], the IC50 was in the range of 1 to 10 µM. In the case of `COc1cccc(-c2cnn3ccc(Nc4cc(OC)c(OC)c(OC)c4)nc23)c1` [Example 178, [3-(3-Methoxy-phenyl)-pyrazolo[1,5-a]pyrimidin-5-yl]-(3,4,5-trimethoxy-phenyl)-amine], the IC50 is 1 to 10 µM.

For orientation: IC50 means the concentration that inhibits the measured activity by half.

These data come from patent publication US20080039455A1, “PYRAZOLOPYRIMIDINES AND SALTS THEREOF, PHARMACEUTICAL COMPOSITIONS COMPRISING SAME, METHODS OF PREPARING SAME AND USES OF SAME” (priority 2006, published 2008).
